Results taken from patent US20120195857A1, “Hepatitis C Virus Inhibitors” (Bristol-Myers Squibb Company, priority 2010, published 2012).
Like-named read-outs stand apart in the source and are kept apart here.

System: HCV 1b genotype
Experiment: microbe, parasite or virus in culture
Format: cell-based
Details: Hepatitis C virus, HCV 1b genotype replicon
Procedure: An HCV Replicon assay was utilized in the present disclosure, and was prepared, conducted and validated as described in commonly owned PCT/US2006/022197 and in O'Boyle et. al. Antimicrob Agents Chemother. 2005 April; 49(4):1346-53. Assay methods incorporating luciferase reporters have also been used as described (Apath.com).
HCV-neo replicon cells and replicon cells containing resistance substitutions in the NSSA region were used to test the currently described family of compounds. […] Ranges are as follows: A =0.5 pM to 10 pM; B=11 pM to 90 pM; C=91 pM to 160 pM; D=[…] to 5 nM.

[1] = read-out: EC50 (Effective 50% inhibitory concentration)

Structure (SMILES) | EC50 (read-out: EC50 Range) [pM] | EC50 [1] [pM]
COC(=O)N[C@H](C(=O)N1CCC[C@H]1c1ncc(-c2ccc(-c3ccc(-c4cnc([C@@H]5CCCN5C(=O)[C@@H](NC(=O)OC)C5CCOCC5)[nH]4)c4ccccc34)cc2)[nH]1)C1CCOCC1 [Example 2] | 11 to 90 | 
COC(=O)N[C@H](C(=O)N1[C@@H]2C[C@@H]2C[C@H]1c1ncc(-c2ccc(-c3ccc(-c4cnc([C@@H]5C[C@H]6C[C@H]6N5C(=O)[C@@H](NC(=O)OC)C5CCOCC5)[nH]4)c4c3CCC4)cc2)[nH]1)C1CCOCC1 [Example 4] | 11 to 90 | 
COC(=O)NC(C(=O)N1[C@@H]2C[C@@H]2C[C@H]1c1ncc(-c2ccc(-c3cc(-c4cnc([C@@H]5C[C@H]6C[C@H]6N5C(=O)[C@@H](NC(=O)OC)C(C)C)[nH]4)cc4c3CCC4)cc2)[nH]1)C(C)C (some centres unmarked) [Example 5] | 91 to 160 | 
COC(=O)N[C@H](C(=O)N1[C@@H](C)CC[C@H]1c1ncc(-c2ccc(-c3ccc(-c4coc([C@@H]5CC[C@H](C)N5C(=O)[C@@H](NC(=O)OC)C5CCOCC5)n4)c4c3CCC4)cc2)[nH]1)C1CCOCC1 [Example 7] | 91 to 160 | 94.2
COC(=O)N[C@H](C(=O)N1[C@@H]2C[C@@H]2C[C@H]1c1ncc(-c2ccc(-c3ccc(-c4cnc([C@@H]5C[C@H]6C[C@H]6N5C(=O)[C@@H](NC(=O)OC)C(C)C)[nH]4)c4nc[nH]c34)cc2)[nH]1)C(C)C [Example 12] | 11 to 90 | 40.9
COC(=O)N[C@H](C(=O)N1[C@@H]2C[C@@H]2C[C@H]1c1ncc(-c2ccc(-c3ccc(-c4cnc([C@@H]5C[C@H]6C[C@H]6N5C(=O)[C@@H](NC(=O)OC)C5CCOCC5)[nH]4)c4nc[nH]c34)cc2)[nH]1)C1CCOCC1 [Example 13] | 161 to 5000 | 4180
COC(=O)N[C@H](C(=O)N1[C@@H](C)CC[C@H]1c1ncc(-c2ccc(-c3ccc(-c4cnc([C@@H]5CC[C@H](C)N5C(=O)[C@@H](NC(=O)OC)C5CCOCC5)[nH]4)c4nc[nH]c34)cc2)[nH]1)C1CCOCC1 [Example 14] | 161 to 5000 | 
COC(=O)N[C@H](C(=O)N1[C@@H]2C[C@@H]2C[C@H]1c1nc(-c2ccc(-c3ccc(-c4ccc(-c5c[nH]c([C@@H]6C[C@H]7C[C@H]7N6C(=O)[C@@H](NC(=O)OC)C(C)C)n5)cc4)c4[nH]ccc34)cc2)c[nH]1)C(C)C [Example 18] |  | 2.74
